Experimental data taken from paper PMC8129716 (CPT: Pharmacometrics & Systems Pharmacology, 2021).

Columns and labels:
CYP3A [1] = settings: cited from earlier work
CYP3A [2] = settings: co-administration of itraconazole; cited from earlier work
CYP3A [3] = assay: PBPK simulation of zanubrutinib as perpetrator, midazolam; set-up: species or system human
CYP3A [4] = settings: midazolam 2 mg with/without zanubrutinib 160 mg b.i.d.; cited from earlier work
CYP2C19 [5] = assay: PBPK simulation of zanubrutinib as perpetrator, omeprazole; set-up: species or system human
CYP2C19 [6] = settings: omeprazole 20 mg with/without zanubrutinib; cited from earlier work
CYP2C9 [7] = assay: PBPK simulation of zanubrutinib as perpetrator, warfarin; set-up: species or system human
CYP2C9 [8] = settings: warfarin 10 mg with/without zanubrutinib; cited from earlier work

Structure (SMILES): NC(=O)N1c2ccccc2C=Cc2ccccc21 [Carbamazepine]
- simulated ribociclib AUC ratio (with/without inducer) (CYP3A [1]): 0.48

Structure (SMILES): O=C1Nc2ccc(Cl)cc2[C@@](C#CC2CC2)(C(F)(F)F)O1 [Efavirenz]
- simulated ribociclib AUC ratio (with/without inducer) (CYP3A [1]): 0.40

Structure (SMILES): CCC(C)n1ncn(-c2ccc(N3CCN(c4ccc(OCC5COC(Cn6cncn6)(c6ccc(Cl)cc6Cl)O5)cc4)CC3)cc2)c1=O (stereo not drawn) [itraconazole]
- increase of zanubrutinib AUC0-t (CYP3A [2]): 3.9 fold
- increase of zanubrutinib Cmax (CYP3A [2]): 2.6 fold

Structure (SMILES): Cc1ncc2n1-c1ccc(Cl)cc1C(c1ccccc1F)=NC2 [midazolam, reference compound]
- midazolam AUC ratio observed/predicted (CYP3A [3]): 1.02
- midazolam AUC ratio, observed (90% CI) (CYP3A [4]): 0.53 (0.48–0.57)
- midazolam Cmax ratio, observed (90% CI) (CYP3A [4]): 0.70 (0.63–0.78)

Structure (SMILES): COc1ccc2[nH]c([S+]([O-])Cc3ncc(C)c(OC)c3C)nc2c1 (stereo not drawn) [omeprazole]
- omeprazole AUC ratio observed/predicted (CYP2C19 [5]): 0.67
- omeprazole Cmax ratio observed/predicted (CYP2C19 [5]): 0.81
- omeprazole AUC ratio, observed (90% CI) (CYP2C19 [6]): 0.63 (0.5–0.70)
- omeprazole Cmax ratio, observed (90% CI) (CYP2C19 [6]): 0.79 (0.65–0.97)

Structure (SMILES): CC(=O)CC(c1ccccc1)c1c(O)c2ccccc2oc1=O (stereo not drawn) [warfarin]
- warfarin AUC ratio observed/predicted (CYP2C9 [7]): 1.03
- warfarin Cmax ratio observed/predicted (CYP2C9 [7]): 0.95
- warfarin AUC ratio, observed (90% CI) (CYP2C9 [8]): 1.00 (0.98–1.03)
- warfarin Cmax ratio, observed (90% CI) (CYP2C9 [8]): 0.95 (0.87–1.04)
